Experimental data reported in patent US20100111992A1, “CYTOM[…] AND METHODS OF USE THEREOF” (THE REGENTS OF THE UNIVERSITY OF CALIFORNIA, priority 2006, published 2010).

Key:
Assay type in all cases: cell-based, human
PD-L1 (a PD-1 ligand) = assay: Surface expression of PD-L1; details: Donor CMV001 vs Donor BB008, FIG. 10
PD-1 = PD-1 Taqman; details: for ΔCT (BB011) / ΔΔCT(BB011): Donor BB011; for ΔCT (BB011): No Pep 3.57; for ΔΔCT(BB011) / ΔΔCT(BB013) / ΔΔCT(BB008) / ΔΔCT(CMV001): relative to No Pep; for ΔCT(BB013) / ΔΔCT(BB013): Donor BB013; for ΔCT(BB013): No Pep 4.745; for ΔCT (BB008) / ΔΔCT(BB008): Donor BB008; for ΔCT (BB008): No Pep 6.4; for ΔCT(CMV001) / ΔΔCT(CMV001): Donor CMV001; for ΔCT(CMV001): No Pep 5.08
PD-L2 (a PD-1 ligand) = assay: Surface expression of PD-L2; details: Donor CMV001 vs Donor BB008, FIG. 11
enriched CD4 cells = assay: Intracellular TNFα in CD4 cells (FACS); details: for immunogenicity (reflected by increased TNFα), CMV-infected subject vs healthy CMV+ subject: Donor CMV001 vs Donor BB008, FIG. 7; for TNFα synthesis as compared to control: FIG. 4, donors SA005 and SA006, in words; for TNFα stimulation (FACS data): over multiple HLA-type donors; for immunogenicity reflected by TNFα: six donors
Procedure: (§1) These experiments focus on confirming the in vitro recognition of the novel class I and class II CMV epitopes predicted to be strong MHC binders by validated computer algorithms using T cells from CMV-positive healthy donors. Phenotypical analysis of CD4+ T cell effectors included a marker of activation (CD69) as well as T cell inflammatory cytokines (TNFα, IFNγ, and IL-2). Functional analysis of CD4+ and CD8+ T cell effectors was measured by proliferative epitope-specific responses via ^3H incorporation and IFNγ expression measured by ELISA, respectively.
In addition, these cells are all chemokine receptor CCR7 negative, reflecting their T effector status.
Enriched CD4 cells are incubated with peptide-pulsed irradiated autologous peripheral blood mononuclear cells, restimulated with peptide on day 7, stimulated with low-dose IL-2 (20 U/ml) on day 10 and 14, and then evaluated for intracellular cytokine production on day 17.

[1] = system: PD-1 (programmed cell death-1); assay: Surface expression of PD-1; details: Donor CMV001 vs Donor BB008, FIG. 9
Description: This correlates with latency versus infection in the two subjects.

CD4+ T cell effectors = assay: IFNg in CD4 cells (FACS); details: for immunogenicity (reflected by increased IFNg), CMV-infected subject vs healthy CMV+ subject: Donor CMV001 vs Donor BB008, FIG. 8; for IFNg stimulation (FACS data): over multiple HLA-type donors; for immunogenicity reflected by IFNg: six donors
Procedure: as §1

[2] = system: CD4+ induced cells (antigen-stimulated T effector cells); assay: Proliferation assay of CD4+ induced cells (3H incorporation); details: for stimulation index: as compared to cells without peptide
Procedure: as §1
Wells are then pulsed with 1 μCi of ^3H for the last 18 hours. Proliferation is then measured by calculating the absorption of ^3H on a beta counter. PHA is a positive control while APCs alone are the negative control. This translates into stimulation indices of 30 and 45.8 in antigen-specific proliferation assays as compared to cells without peptide.
Antigen-stimulated T effector cells are incubated with autologous, irradiated total peripheral blood mononuclear cells for 96 hours. Wells are pulsed with 1 μCi of ^3H for the last 18 hours. Proliferation is then measured by calculating the absorption of ^3H on a beta counter. APCs alone are the negative control.
Data from the six donors SA001, SA005, SA006, BB006, BB008, CMV001, BB011, and BB013 are shown. No peptide versus 3DR (P<0.001); no peptide versus 4DR (P<0.05); 1DR versus 3DR (P<0.05); 2DR versus 3DR (P<0.01); and 3DR versus 6DR (P<0.05).

enriched CD4+ cells = assay: Intracellular IL-2 expression in enriched CD4+ cells; details: for expression of IL-2 as compared to no peptide: FIG. 2, in words; for expression of IL-2 in CD4+ cells: FIG. 2, day 17, cells without peptide 3.18%
Procedure: as §1
Enriched CD4+ cells are incubated with peptide-pulsed irradiated autologous PBMCs, restimulated with peptide on day 7, stimulated with low-dose IL-2 (20 U/ml) on day 9, and then evaluated for intracellular cytokine production on day 17. FIG. 2A illustrates no peptide, while FIGS. 2B and 2C show stimulation by peptides 1DR and 4DR, respectively.

CD8+ T cell effectors = assay: IFNγ expression measured by ELISA, CD8+ T cell effectors (class I peptides)
Procedure: as §1, with “As such, these” for “These”, “confirming that” for “confirming”
as §1

[3] = excluding CMV-infected subject (CMV001), FIG. 12
[4] = including CMV-infected subject (CMV001), FIG. 13
[5] = FIG. 1, 96 hours with autologous irradiated PBMCs, 3H last 18 hours

Sequence	surface expression of PD-L1, CMV-infected subject vs healthy CMV+ subject (PD-L1 (a PD-1 ligand))	ΔCT (BB011) (PD-1)	ΔΔCT(BB011) (PD-1)	ΔCT(BB013) (PD-1)	ΔΔCT(BB013) (PD-1)	surface expression of PD-L2, CMV-infected subject vs healthy CMV+ subject (PD-L2 (a PD-1 ligand))	ΔCT (BB008) (PD-1)	ΔΔCT(BB008) (PD-1)	ΔCT(CMV001) (PD-1)	ΔΔCT(CMV001) (PD-1)	immunogenicity (reflected by increased TNFα), CMV-infected subject vs healthy CMV+ subject (enriched CD4 cells)	TNFα stimulation (FACS data) (enriched CD4 cells)	immunogenicity reflected by TNFα (enriched CD4 cells; [3])	surface expression of PD-1, CMV-infected subject vs healthy CMV+ subject [1]	immunogenicity (reflected by increased IFNg), CMV-infected subject vs healthy CMV+ subject (CD4+ T cell effectors)	IFNg stimulation (FACS data) (CD4+ T cell effectors)	immunogenicity reflected by IFNg (CD4+ T cell effectors; [3])	also measured
AGILARNLVPMVATV [6DR, human CMV pp65-derived class II peptide, Human (DRB1)]	more surface expression of PD-L1	3.845	0.275	5.05	0.305	more surface expression of PD-L2												
DVYYTSAFVFPTKDV [4DR]	more surface expression of PD-L1	3.345	−0.225	4.57	−0.175	more surface expression of PD-L2	1.185	−5.215	1.165	−3.915	greater than in a healthy CMV+ subject	peptide-specific TNFα and IFNg stimulation	increased TNFα and IFNg	more surface expression of PD-1	greater than in a healthy CMV+ subject	peptide-specific TNFα and IFNg stimulation	increased TNFα and IFNg	TNFα synthesis as compared to control (enriched CD4 cells): stimulate TNFα synthesis; immunogenicity reflected by TNFα (enriched CD4 cells; [4]): increased TNFα and IFNg; immunogenicity reflected by IFNg (CD4+ T cell effectors; [4]): increased TNFα and IFNg; proliferation, counts per minute [2, 5]: 15,572 cpm; stimulation index ([2]; FIG. 1): 45.8; expression of IL-2 as compared to no peptide (enriched CD4+ cells): stimulate expression of IL-2; expression of IL-2 in CD4+ cells (enriched CD4+ cells): 15.13%
HVRVSQPSLILVSQY [3DR, human CMV pp65-derived class II peptide, Human (DRB1)]		4.08	0.51	5.995	1.25		5.635	−0.765	2.545	−2.535	greater than in a healthy CMV+ subject	peptide-specific TNFα and IFNg stimulation	increased TNFα and IFNg	more surface expression of PD-1	greater than in a healthy CMV+ subject	peptide-specific TNFα and IFNg stimulation	increased TNFα and IFNg	expression of TNFα in CD4 cells (enriched CD4 cells; donor not given): 34.58%; stimulation index ([2]; first of two CMV+ healthy donors (FIG. 3)): 83.05; proliferation, counts per minute ([2]; first of two CMV+ healthy donors (FIG. 3; presumably Donor SA005)): 30,231.67 cpm; stimulation index ([2]; second of two CMV+ healthy donors (FIG. 3)): 147.03; proliferation, counts per minute ([2]; second of two CMV+ healthy donors (FIG. 3; presumably Donor SA006)): 49,648.33 cpm; functional response (proliferation data) ([2]; summary in words): leads to a functional response
MISVLGPISGHVLKA [2DR, human CMV pp65-derived class II peptide, Human (DRB1)]		2.94	−0.63	5.26	0.515		5.525	−0.875	5.005	−0.075								
MSIYVYALPLKMLNI [1DR, human CMV pp65-derived class II peptide, Human (DRB1)]	more surface expression of PD-L1	3.67	0.1	5.74	0.995	more surface expression of PD-L2	5.385	−1.015	3.635	−1.445	greater than in a healthy CMV+ subject	peptide-specific TNFα and IFNg stimulation	increased TNFα and IFNg	more surface expression of PD-1	greater than in a healthy CMV+ subject	peptide-specific TNFα and IFNg stimulation	increased TNFα and IFNg	TNFα synthesis as compared to control (enriched CD4 cells): stimulate TNFα synthesis; expression of TNFα in CD4 cells (enriched CD4 cells; donor SA005): 15.9%; immunogenicity reflected by TNFα (enriched CD4 cells; [4]): increased TNFα and IFNg; immunogenicity reflected by IFNg (CD4+ T cell effectors; [4]): increased TNFα and IFNg; proliferation, counts per minute [2, 5]: 10,201 cpm; stimulation index ([2]; FIG. 1): 30; expression of IL-2 as compared to no peptide (enriched CD4+ cells): stimulate expression of IL-2; expression of IL-2 in CD4+ cells (enriched CD4+ cells): 39.58%
SGKLFMHVTLGSDVE [5DR, human CMV pp65-derived class II peptide, Human (DRB1)]	more surface expression of PD-L1	3.97	0.4	6.73	1.985	more surface expression of PD-L2	6.26	−0.14	3.53	−1.55								
YTSAFVFPT [CMV65182-190, human CMV pp65-derived class I peptide, Human (A2)]																		immunogenicity among the class I peptides (CD8+ T cell effectors; IFNγ ELISA): most immunogenic; IFNγ measured by ELISA (mean) (CD8+ T cell effectors; class I peptides, T cells from CMV-positive healthy donors): 1999 pg/mL
